ChEMBL document CHEMBL1141113, “High affinity electrophilic and photoactivatable covalent endocannabinoid probes for the CB1 receptor” (J Med Chem, 2005)

How the values were obtained:
[1] = biological target: Cannabinoid receptor 1 (Rattus norvegicus, UniProt P20272); assay: Binding affinity towards rat brain cannabinoid receptor 1 in the presence of PMSF upon incubation for 15 min at 4 degree C in pH 7.4 using [3H]CP-55940
[2] = biological target: Cannabinoid receptor 2 (Mus musculus, UniProt P47936); assay: Binding affinity towards mouse spleen cannabinoid receptor 2 in the presence of PMSF upon incubation for 15 min at 4 degree C in pH 7.4 using [3H]CP-55940; format: tissue-based
Chain of Cannabinoid receptor 2 (P47936 whole entry): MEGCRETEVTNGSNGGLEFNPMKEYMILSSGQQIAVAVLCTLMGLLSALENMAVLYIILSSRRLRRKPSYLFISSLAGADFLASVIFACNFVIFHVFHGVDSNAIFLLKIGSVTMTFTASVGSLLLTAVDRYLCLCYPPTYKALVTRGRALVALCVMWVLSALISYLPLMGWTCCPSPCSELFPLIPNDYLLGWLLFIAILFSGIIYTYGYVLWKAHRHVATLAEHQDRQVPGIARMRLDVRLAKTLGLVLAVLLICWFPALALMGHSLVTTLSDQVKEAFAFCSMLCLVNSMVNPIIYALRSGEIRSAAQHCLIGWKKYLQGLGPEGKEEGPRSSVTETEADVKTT

Chain of Cannabinoid receptor 1 (P20272 whole entry): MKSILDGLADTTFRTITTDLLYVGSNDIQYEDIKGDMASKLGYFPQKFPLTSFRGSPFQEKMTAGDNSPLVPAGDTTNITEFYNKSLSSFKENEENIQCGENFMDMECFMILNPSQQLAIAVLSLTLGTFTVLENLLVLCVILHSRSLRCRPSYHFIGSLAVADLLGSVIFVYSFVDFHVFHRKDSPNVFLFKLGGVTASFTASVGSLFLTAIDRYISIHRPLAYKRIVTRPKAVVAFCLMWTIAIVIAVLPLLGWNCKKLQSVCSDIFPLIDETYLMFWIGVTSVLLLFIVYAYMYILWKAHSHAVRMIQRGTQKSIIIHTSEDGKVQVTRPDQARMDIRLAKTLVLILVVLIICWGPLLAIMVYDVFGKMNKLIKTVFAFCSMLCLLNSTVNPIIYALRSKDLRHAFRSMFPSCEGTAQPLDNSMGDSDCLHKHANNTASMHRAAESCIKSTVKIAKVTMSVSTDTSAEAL

Structure (SMILES)	Ki [1] [nM]	Ki [2] [nM]
O=C(CCC/C=C\C/C=C\C/C=C\C/C=C\CCCCCN=C=S)NC1CC1	1.3	48.5
CCCCC/C=C\C/C=C\C/C=C\C/C=C\CCCC(=O)NC1CC1	2.7	157
